In patent publication US6180666A, “Use of gallic acid esters to increase bioavailability of orally administered pharmaceutical compounds” (priority 1999, dated 2001):
Read-outs that look alike come from different tables or passages of the source.

Legend:
[1] = biological target: T1, CYP3A (Homo sapiens, UniProt P08684); assay: Inhibition of CYP3A-mediated nifedipine metabolism in human liver microsomes by gallic acid esters (Example 1); settings: for activity at 100 µM / activity at 500 µM / activity at 50 µM / activity at 10 µM / activity at 25 µM: read-out: Relative Nifedipine Oxidation Rate (± S.D.)
Procedure: The known CYP3A substrate nifedipine (Gonzalez, F. J., et al., Human P45OPCN1: sequence, chromosome localization, and direct evidence through cDNA expression that P45OPCN1 is nifedipine oxidase, DNA, 2:79-86 (1988)) was used as a test substrate for evaluating the potential of various gallic acid esters to inhibit CYP3A metabolism in a human liver microsome study.
(§1) Microsomal pellets were prepared from the homogenate using standard differential centrifugation procedures (Guengerich, Analysis and characterization of enzymes in Principles and Methods of Toxicology, A. W. Hayes (ed.), Raven Press, New York. pp. 777-814 (1989)) and were stored at -80° C. in Tris-acetate buffer, pH 7.4, containing 20% w/v glycerol. Microsomes were diluted in 100 mM potassium phosphate buffer, pH 7.4, for use in metabolic incubations. Microsomal protein and CYP content of the human liver microsomes were determined using methods of Bradford (Bradford, M. M. A rapid and sensitive method for the quantitation of microgram quantities of protein utilizing the principles of protein-dye binding. Anal. Biochem. 72:248-254 (1976)) and Omura and Sato (Omura, T. et. al. The carbon monoxide-binding pigment of liver microsomes II. Solubilization, purification and properties. J. Biol. Chem. 239:2370-2378 (1964)), respectively.
In the experiments, 100 μM nifedipine and either 5 μl of a solution of one of the gallic acid esters (at a concentration indicated in Table 1) or 5 μl of solvent alone (control) were preincubated along with 0.1 mg/ml of the human liver microsomal proteins and 1 mM diethylenetriarninepentaacetic acid (DETAPAC) in 100 mM phosphate buffer, pH 7.4, for 5 minutes at 37°0 C. Metabolic reactions were started by addition of reduced β-nicotinamide adenine dinucleotide phosphate (NADPH) to give a final concentration of 1 mM and a final volume of 0.5 ml. Metabolic reactions were stopped after 3 minutes by vortex mixing with 0.2 ml of an extraction solvent of (94:6) acetonitrile:glacial acetic acid. Protein was precipitated by centrifugation (3000 rpm×10 minutes) and supernatants were analyzed for nifedipine and its oxidation product 2,6-dimethyl-4-(2-nitrophenyl)-3,5-pyridinedicarboxylic acid dimethyl ester by High Performance Liquid Chromatography (HPLC).
All experiments were conducted in triplicate and compared to incubations carried out without NADPH or without substrate. The data are the mean±standard deviation of three measurements.
^a Substrate and inhibitor were dissolved in acetonitrile except for
lauryl gallate which required methanol as vehicle.
^b Inhibition constant Ki determinations utilized 10, 20, 50 and
100 μM nifedipine substrate concentrations and experiments were run in
duplicate. Ki values were determined by regression analysis of rate
data using SigmaPlot V4.OS software (SPSS Inc., San Rafael, California).

[2] = biological target: T1, CYP3A; assay: Inhibition of CYP3A-mediated metabolism of amiodarone, buspirone and nifedipine in human liver microsomes (Example 2)
Procedure: as §1
(§2) The ability of propyl gallate at various concentrations to inhibit metabolism for three representative drugs through inhibition of the cytochrome P450 mechanism was tested. Human liver microsomes were prepared and each of three drugs, amiodarone, buspirone, or nifedipine, were incubated with the microsomes in the presence of propyl gallate or a known inhibitor of CYP3A metabolism. Metabolism in the presence of propyl gallate or known CYP3A inhibitor was compared to a control treated only with the solvent in which the inhibitor was dissolved.
(§3) Clin. Pharmacol. Ther. 64: 655-60 (1998)) by human liver microsomes was tested. The microsomes were prepared as in Example 1.
(§4) The amiodarone was present in a concentration of 100 μM, the buspirone was in a concentration of 25 μM, and the nifedipine was present in a concentration of 25 μM. The propyl gallate was tested with each of these drugs at concentrations of 25, 50, and 100 μM.
(§5) The drug and optionally the inhibitor were preincubated with the microsomes at 1 nmol CYP/ml and 1 mM DETAPAC in 100 mM phosphate buffer, pH 7.4 for 5 minutes at 37° C. After the preincubation, metabolic reactions were started by the addition of 1 mM NADPH. Samples were taken at 1, 2, and 3 minutes after the start of the reaction and analyzed by HPLC. Disappearance of substrate and/or formation of metabolite were quantitated by comparison to standard curves.
(§6) The metabolism rates (nmol/ml/min) are the mean±standard deviation of three measurements.
(§7) ^a Formation rate of N-desethylamiodarone metabolite (nmol/ml/min)
(§8) ^b Buspirone disappearance (nmol/ml/min)
(§9) ^c Formation of nifedipine oxidation product
(§10) 2,6-dimethyl-4-(2-nitrophenyl)-3,5-pyridinedicarboxylic acid, dimethyl

[3] = test system: CYP3A; assay: as above
Procedure: as §1, §2, §3, §4, §5, §6, §7, §8, §9, §10

[4] = Joint FAO/WHO Expert Committee, cited from earlier work; for temporary acceptable daily intake: 1/200 of no observed effect level, 90 day feeding studies in rats
[5] = read-out: Buspirone metabolism rate, % control
[6] = read-out: Nifedipine metabolism rate, % control
[7] = inhibitor 100 μM, amiodarone 100 μM

T1 sequence (P08684 2-503 limits assumed): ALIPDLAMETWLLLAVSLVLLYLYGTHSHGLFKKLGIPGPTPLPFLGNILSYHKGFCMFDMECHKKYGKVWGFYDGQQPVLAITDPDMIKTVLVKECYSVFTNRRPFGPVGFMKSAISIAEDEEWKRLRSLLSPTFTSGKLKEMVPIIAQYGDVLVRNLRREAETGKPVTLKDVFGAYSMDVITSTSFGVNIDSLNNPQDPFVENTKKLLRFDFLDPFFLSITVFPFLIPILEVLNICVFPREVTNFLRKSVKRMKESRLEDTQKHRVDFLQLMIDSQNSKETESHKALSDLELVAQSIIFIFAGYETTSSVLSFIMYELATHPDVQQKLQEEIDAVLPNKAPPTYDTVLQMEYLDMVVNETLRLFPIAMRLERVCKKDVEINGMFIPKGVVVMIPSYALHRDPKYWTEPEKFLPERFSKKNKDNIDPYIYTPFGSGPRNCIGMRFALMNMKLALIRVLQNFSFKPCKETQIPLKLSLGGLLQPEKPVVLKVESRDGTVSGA

Row | SMILES | activity at 100 µM [1] [%] | activity at 500 µM [1] [%] | Ki [1] [µM] | activity at 50 µM [1] [%] | Mean ± SD metabolism rate, amiodarone (formation rate of N-desethylamiodarone) [3, 7] [nmol/mL/min] | activity at 10 µM [1] [%] | activity at 25 µM [1] [%] | temporary acceptable daily intake [4] | other results
1 | COC(=O)c1cc(O)c(O)c(O)c1 [Methyl gallate, methyl gallate] | 53 | 16 |  |  |  |  |  |  | 
2 | CCCOC(=O)c1cc(O)c(O)c(O)c1 [Propyl gallate, 3,4,5-trihydroxybenzoic acid, n-propyl ester] | 34 | 6.1 | 64 ± 2 | 59 | 0.32 ± 0.03 |  |  |  | remaining activity at 25 µM [2, 5]: 65%; remaining activity at 50 µM [2, 5]: 42%; remaining activity at 100 µM [2, 5]: 29%; remaining activity at 25 µM [2, 6]: 82%; remaining activity at 50 µM [2, 6]: 54%; remaining activity at 100 µM [2, 6]: 33%; Inhibition of CYP3A-mediated metabolism (in words) [3]: effective inhibitor of CYP3A-mediated metabolism; Inhibition of drug metabolism compared with known CYP3A inhibitors (in words) [3]: better at inhibiting drug metabolism than the established CYP3A inhibitors diltiazem, erythromycin, and verapamil; Mean ± SD metabolism rate, amiodarone (formation rate of N-desethylamiodarone) ([3]; inhibitor 25 μM, amiodarone 100 μM): 0.94 ± 0.02 nmol/mL/min; Mean ± SD metabolism rate, amiodarone (formation rate of N-desethylamiodarone) ([3]; inhibitor 50 μM, amiodarone 100 μM): 0.55 ± 0.02 nmol/mL/min; Amiodarone metabolism rate, % control ([3]; microsomes, 25 µM): 49 % control; Amiodarone metabolism rate, % control ([3]; microsomes, 50 µM): 28 % control; Amiodarone metabolism rate, % control ([3]; microsomes, 100 µM): 17 % control; acceptable daily intake ([4]; 1/100 of no observed effect level, 90 day feeding study in rats): 0 to 1.4 mg/kg/day
3 | CCCCCCCCCCCCOC(=O)c1cc(O)c(O)c(O)c1 [Lauryl gallate, lauryl gallate] | 6.4 |  |  | 12.6 |  | 61 | 31 | 0-0.05 mg/kg body weight | 
4 | CCCCCCCCOC(=O)c1cc(O)c(O)c(O)c1 [Octyl gallate, octyl gallate] | 1.1 |  | 5.2 ± 0.2 | 4.9 |  | 44 | 17.5 | 0-0.1 mg/kg body weight | Inhibition of CYP3A-mediated metabolism (in words) [1]: especially good inhibitor of the metabolism at relatively low concentrations
5 | CC[C@H]1OC(=O)[C@H](C)[C@@H](O[C@H]2C[C@@](C)(OC)[C@@H](O)[C@H](C)O2)[C@H](C)[C@@H](O[C@@H]2O[C@H](C)C[C@H](N(C)C)[C@H]2O)[C@](C)(O)C[C@@H](C)C(=O)[C@H](C)[C@@H](O)[C@]1(C)O [Erythromycin, reference compound] |  |  |  |  | 0.84 ± 0.07 |  |  |  | 
6 | CC(=O)N1CCN(c2ccc(OCC3COC(Cn4ccnc4)(c4ccc(Cl)cc4Cl)O3)cc2)CC1 (centres unmarked) [Ketoconazole, reference compound] |  |  |  |  |  |  |  |  | Amiodarone metabolism rate, % control ([3]; inhibitor 1 μM, amiodarone 100 μM): 4 % control
